What was measured:
[1] = tested on: oxotremorine induced tremors; test: Oxotremorine antagonism (tremor, salivation, lacrimation scores); assay type: in vivo, NMRI mice
Procedure: Oxotremorine is a cholinergic drug which is a muscarine agonist and induces parkinsonism-like signs such as tremors, ataxia, spasticity, salivation, lacrimation and hypothermia. Oxotremorine is a cholinergic drug, which induces excessive tremors in mice. If a drug is having anti-cholinergic property like atropine the tremors will be decreased.
Procedure: Groups of 6-10 male NMRI mice weighing 18-22 g are used. They are dosed orally with the test compound or the standard (5 mg/kg benezatropine mesilate) 1 hour prior to the administration of 0.5 mg/kg oxotremorine. Tremor is scored after oxotremorine dosage in periods of 5 min for 1 hour.
After the administration of 0.5 mg/kg of Oxotremorine, the tremors started within 15 mins and were sustained for 30 mins.

[2] = tested on: 6-OHDA unilateral lesion of the dopaminergic nigrostriatal pathway; test: 6-Hydroxydopamine model (rotation); assay type: in vivo, Male Wistar mice
Procedure: 6-Hydroxydopamine (6-OHDA) is a neurotoxin which causes a unilateral lesion of the dopaminergic nigrostriatal pathway that induces hypersensitivity of the post synaptic dopaminergic receptor in the striatum of the lesioned side. An indirect acting compound like amphetamine is administered the mice rotate toward the lesioned side (ipsilateral) as opposed to when a direct acting dopaminergic drug is administered which causes then to rotate contra laterally. Therefore, this test can be used for the study of central dopamine function and the evaluation of dopamine antagonists and agonists, particularly the activity of novel anti-parkinsonian drugs. This test clearly distinguishes drugs with predominantly dopamine receptor agonist activity from those with predominantly dopamine releasing activity of the drug.
Procedure: Male Wistar […] weighing 200-250 grams at the time of surgery are used. They are housed individually in a controlled environment with free access to food and water. The animals are anaesthetized with sodium pentobarbital. The head is placed in a stereotaxic device (DKI 900) and positioned according to the atlas of Konig and Klippel. After a sagittal cut is made in the skin of the skull, a 2 mm wide hole is drilled with an electrical trepan drill. Care is taken not to lesion the meninges. A 30 gauge stainless-steel cannula connected to a Hamilton syringe is aimed at the anterior zona compacta of the substantia nigra (coordinates anterior 1.88 mm, lateral 2.0 mm and dorso-ventral—8.2 mm from instrument zero). A total of 8 μg of […] in 4 γ/L of saline is injected at a rate of 1 γ/L/min. After the intra-cranial injection, the wound is closed.
The animal is allowed several weeks for recovery and for development of the lesion. Specially constructed opaque plastic spheres attached to solid state programming equipment serve as test chambers. The number of full turns, either ipsilateral or contra lateral to the lesion, are recorded on an automatic printout counter every 15 min for one or two hours test sessions. To determine the control values for ipsilateral turning, each subject is administered 2.5 mg/kg of d amphetamine and immediately placed in the circling chamber for 2 hours Control values for contra lateral circling are determined by injecting apomorphine at 1 mg/kg s.c. and recording the rat's circling for 1 hour. Test compounds are given i.p or sc. And the animals placed into the circling chambers. Circling is recorded over a 1 hour period. This experiment is conducted in 30 animals and the average is represented in the table

[3] = tested on: Haloperidol induced catalepsy; test: Haloperidol induced catalepsy in mice (bar test); assay type: in vivo, Swiss Albino mice
Excerpt: Haloperidol is neuroleptic agent that blocks the Dopamine D2 receptor in the brain. This precipitates the extra-pyramidal side effects which can be measured by the “Bar Test for catalepsy in mice”. Catalepsy in mice is defined as a failure to correct an externally imposed unusual posture over a prolonged period of time. […] Haloperidol induced catalepsy can be reversed if dopaminergic drugs that supply dopamine to the striatum of the brain since it increase competitive antagonism.
Procedure: Swiss Albino mice of either sex weighing 23-28 g are used. Catalepsy was induced by Haloparidol (0.5 mg/kg i.p.) and assessed by bar test up to 3 hrs. Six animals are dosed with the saline, test drug and the standard intraperitonially. The animals are placed in translucent plastic boxes with a wooden dowel mounted horizontally 2.5 cm from the floor of the box. The animals are allowed to adapt to the box for 2 min. Then, each animal is grasped gently around the shoulders and under the forepaws and placed carefully on the dowel. The amount of the time spent with at least one forepaw on the bar is determined. When the animal removes its paws, the time is recorded and the mice are repositioned on the bar. Three trials are conducted for each animal at 30, 60, 120 and 360 min, with 6 animals in each group.

[4] = positive control 5 mg/kg and oxytremorine, n = 6

CN1[C@@H]2CC[C@H]1C[C@@H](OC(=O)C(CO)c1ccccc1)C2 (stereo partly shown) [Atropine]
decrease in severity of tremors ([1]; Atropine 1 mg/kg, FIG. 2): significant decrease in severity of tremors | Lacrimation score at 30 minutes ([1]; Atropine, dose not given): 0.6 | Salivation score at 30 minutes ([1]; Atropine, dose not given): 0.8 | Tremor score 5 minutes [1, 4]: 0.9 | Tremor score 15 minutes [1, 4]: 0.9 | Tremor score 30 minutes [1, 4]: 1.0 | Tremor score 45 minutes [1, 4]: 1.3

CN1CCc2cccc3c2[C@H]1Cc1ccc(O)c(O)c1-3 [Apomorphine]
Contra-lateral Rotation ([2]; Apomorphine 0.3 mg/kg): 169.33 | Ipsilateral Rotation ([2]; Apomorphine 0.3 mg/kg): 0.67

N[C@@H](Cc1ccc(O)c(O)c1)C(=O)O [L-Dopa, Dihydroxy Phenyl Alanine]
reduction of catalepsy ([3]; L-DOPA (10)+Hal (0.5) compared with Hal (0.5) at respective time, FIG. 1): significant at P<0.001 | reducing catalepsy, standard versus test drug ([3]; L-Dopa 10 mg/kg compared with test drug 100 mg/kg): more effective than the test drug at a dosage of 100 mg/kg | Contra-lateral Rotation ([2]; L-Dopa 10 mg/kg): 45.67 | Ipsilateral Rotation ([2]; L-Dopa 10 mg/kg): 0.83
